Several values for one entry are separate records, joined by “and”; a condition that tells them apart may be missing. Equal entries are not always repeated.
How the values were obtained:
[1] = system: human lymphocytes; assay: Inhibition of PHA-stimulated lymphocyte proliferation ([3H]thymidine incorporation); assay type: cell-based; conditions: PHA-stimulated human lymphocyte proliferation; read-out: Immunosuppressive Effect (IC50 in μM) [B]
Description: Phytohemagglutinin (phytostigma or “PHA”) induces proliferation of human lymphocytes.

[2] = Cytotoxicity measured by cell proliferation inhibition; assay type: cell-based
[3] = system: Lewis (LEW) heart allografts; assay: Heterotopic heart transplantation in rats; assay type: in vivo, Rat ACI recipients
Description: (§1) Heterotopic heart transplantation was performed in rats and mice. In brief, heart transplantation was performed by previously described modified method. Hearts harvested from donors were perfused with chilled saline and immediately transplanted to recipients under full anesthesia. Suture 10-0 in rats and 12-0 in mice (Ethicon; Somerville, N.J.) was used to perform anastomosis of aorta to aorta and pulmonary artery to vena cava. Heartbeat was evaluated daily and the day of complete cessation was considered rejection. Animals that died within three days after transplantation were excluded from the analysis (less than 5%).
Rat ACI (RT1*) recipients of Lewis (LEW; RT1^1) heart allografts were untreated or were treated for 7 days by daily (QDx7) i.p. injections with 20 mg/kg N5. Untreated recipients rejected heart allografts in a mean survival time (MST) of 8.40±0.55 (n=5).

[4] = system: C57BL/6 heart allografts; assay: Heterotopic heart transplantation in mice; assay type: in vivo, Balb/c mice
Description: as §1
Mice were also transplanted with heart allografts. In particular, untreated Balb/c (H-2^d) recipients rejected C57BL/6 (H-2^b) heart allografts at a MST of 7.8±0.84 days (n=5). Treatment with 40 mg/kg N5, QDx7, extended heart allograft survival to 13.33±2.52 days, which increased life span 71% (n=3; p<0.03).
Mice heart allografts were treated with 20 mg/kg of N3, QDx7, i.p. In particular, untreated Balb/c (H-2^d) recipients rejected C57BL/6 ([…]) heart allografts at a MST of […] days (n=5). Treatment with 20 mg/kg of N3 (i.e., one-half of dose of N5) extended heart allograft survival to 18.75±3.86 days (n=4; p<0.0005), an increase in lifespan of 140%.

[5] = system: LEW kidney allografts; assay: Orthotopic kidney transplantation in rats; assay type: in vivo, ACI rats
Description: Orthotopic kidney transplantation was performed in rats. In particular, the left kidney of donor was perfused through the aorta with heparinized saline (4° C.) and then harvested after the renal artery, renal vein, and ureter were cut off. End-to-end anastomosis of donor and recipient renal arteries and veins were performed using 10-0 nylon suture (Ethicon; Somerville, N.J.). The recipients' native kidneys were removed on the day of transplantation. Animals that died within three days after transplantation were excluded from the analysis (less than 5%).
The effect of N5 (administered in DMSO, 20 mg/kg, i.p. QDx7) on kidney allograft survival was examined. Although untreated ACI recipients acutely rejected LEW kidney allografts at 8.8±0.75 days, a 7-day i.p. daily treatment extended survivals to 26.50±2.12 days, which increased lifespan 200% (n=2; p<0.03).

[6] = system: carrageenan-induced paw edema; assay: Carrageenan-induced paw edema; assay type: in vivo, B6D2F1 mice; conditions: for Pedis Area: individual mice 1-4; for Pedis Area, Mean: mean of 4 mice
Description: Carrageene (1%, 30 μl) was injected i.m. into the pedis of B6D2F1 mice (4 mice/group) to induced edemic inflammation at 0 hours. N3, N5 (i.p. injection) or oral administration of aspirin 500 mg/kg, or topical application of hydrocortisone cream (1%) or Lidex cream (0.05%) to the pedis skins were given at −1, 6, 12 and 24 hours. The control mice received dimethylsulfoxide (the vehicle of ningalins). The pedis areas (in mm^2) were measured at 0, 3, 6, 12, 24, 36 and 48 hours.

## COc1ccc(CCn2c(C(=O)N(C)C)c(-c3ccc(OC)c(OC)c3)c3c4cc(OC)c(OC)cc4oc(=O)c32)cc1OC [Ningalin N5, 1-(3,4-Dimethoxy-phenyl)-3-[2-(3,4-dimethoxy-phenyl)-ethyl]-7,8-dimethoxy-4-oxo-3,4-dihydro-5-oxa-3-aza-cyclopenta[α]naphthalene-2-carboxylic acid dimethylamide]
[1]
  IC50: 0.17 ± 0.01 µM
[2]
  IC50: 17.1 ± 4.6 µM
[3]; ACI recipients of LEW heart, N5 20 mg/kg i.p. QDx7, 20 mg/kg
  MST ± SD days (heart allograft survival): 18.67±2.52 days and 18.67 ± 2.5 days
[3]; heart allograft, N5 20 mg/kg i.p. QDx7, vs untreated
  increased life span: 122%
[3]; heart, N5 20 mg/kg, 20 mg/kg
  Survival days (individual animals): 18 days and 19 days and 21 days
[4]; B6 heart to Balb/c, N5 40 mg/kg QDx7, 40 mg/kg
  MST ± SD days (heart allograft survival): 13.33±2.52 days and 13.35 ± 2.52 days
[4]; heart allograft, N5 40 mg/kg QDx7, vs untreated
  increased life span: 71%
[4]; heart, N5 40 mg/kg, 40 mg/kg
  Survival days (individual animals): 11 days and 13 days and 16 days
[5]; ACI recipients of LEW kidney, N5 in DMSO 20 mg/kg i.p. QDx7
  MST ± SD days (kidney allograft survival): 26.50±2.12 days
[5]; kidney allograft, N5 20 mg/kg i.p. QDx7, vs untreated
  increased life span: 200%
[5]; kidney, N5 20 mg/kg, 20 mg/kg
  Survival days (individual animals): 26 days and 28 days
[6]; 0 hr, aspirin 500 mg/kg oral, N3 100 mg/kg i.p., N5 50 mg/kg i.p., hydrocortisone cream 1%, Lidex cream 0.05% topical, given at −1, 6, 12, 24 hours
  Pedis Area: 100 mm^2
[6]; 0 hr, doses as E35
  Pedis Area, Mean: 100 mm^2
[6]; 3 hr, doses as E35
  Pedis Area: 137.1 mm^2 and 139.2 mm^2 and 143.9 mm^2 and 132 mm^2
  Pedis Area, Mean: 138.1 mm^2
[6]; 6 hr, doses as E35
  Pedis Area: 138.1 mm^2 and 144.3 mm^2 and 146.9 mm^2 and 145.4 mm^2
  Pedis Area, Mean: 143.7 mm^2
[6]; 12 hr, doses as E35
  Pedis Area: 125.7 mm^2 and 124.7 mm^2 and 140.8 mm^2 and 141.2 mm^2
  Pedis Area, Mean: 133.1 mm^2
[6]; 24 hr, doses as E35
  Pedis Area: 125.7 mm^2 and 161.6 mm^2 and 128.6 mm^2 and 142.3 mm^2
  Pedis Area, Mean: 129.6 mm^2
[6]; 36 hr, doses as E35
  Pedis Area: 120 mm^2 and 118.6 mm^2 and 127.6 mm^2 and 142.3 mm^2
  Pedis Area, Mean: 127.1 mm^2
[6]; 48 hr, doses as E35
  Pedis Area: 120 mm^2 and 117.5 mm^2 and 130.6 mm^2 and 142.3 mm^2
  Pedis Area, Mean: 127.6 mm^2
[6]; N5 50 mg/kg i.p., N3 100 mg/kg i.p., all drugs: at 12-48 hours
  anti-inflammatory effect (FIG. 3): produced an anti-inflammatory effect
